Experimental findings from ChEMBL document CHEMBL1201862, “PubChem BioAssay data set” (2004) are described below.

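Five concentrations, 48 hours, 96-well plates. GI50 marks 50% less growth.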 Active and inactive are the calls of the source. No stated cut-off is given here; in the data, active = GI50 up to about 1.1 µM and inactive = higher. Bounds are passed on as bounds.

Common to all, as to experiment: DTP human tumour cell line panel, 48 h
Test [1] concerns SK-MEL-2.
Test [2] relates to BT-549.
Test [3] relates to A549.
In test [4] the test system is MDA-N.
For test [5], the system named is 786-0.
The subject of test [6] is MDA-MB-231.
Test [7] concerns SNB-19.
Test [8] has as its system DU-145.
Test [9] relates to CCRF-CEM.
In test [10] the test system is A498.
For test [11], the system named is SK-MEL-28.
Test [12] deals with HL-60.
Test [13] deals with U-251.
In test [14] the test system is NCI-H460.
Test [15] relates to SF-268.
Test [16] deals with SF-295.
Test [17] deals with Hs-578T.
In test [18] the test system is SR.
The subject of test [19] is NCI-H23.
The test system of test [20] is RPMI-8226.

Broadly, the GI50 is the concentration giving 50% growth inhibition. Consider `Cn1nc2c(c1N)Cc1c(nn(C)c1N)-c1ccccc1-2`, for which the GI50 in test [1], in test [2], in [3], in test [4], in test [5] and in test [6] was > 100 µM (inactive) throughout. For the same compound, the GI50 in test [7] was > 100 µM (inactive); in test [8], > 100 µM (inactive); in test [9], > 100 µM (inactive); in test [10] it was 20.2 µM (inactive); in [11], > 100 µM (inactive); in test [12] it was > 100 µM (inactive). For the same compound, the GI50 in test [13], in [14], in test [15], in test [16], in test [17] and in [18] was > 100 µM (inactive) in each case. In addition, the GI50 in [19] and in test [20] was > 100 µM (inactive) in each case.
In the case of `O=C(NCCN1CCCC1)c1cn2c(ccc3sc4ccccc4c(=O)c32)n1`, the GI50 in test [1] was 19.2 µM (inactive); in test [2], 17.6 µM (inactive); in test [3] it was 7.19 µM (inactive); in [4], 16.2 µM (inactive); in test [5], 1.41 µM (inactive); in [6] it was 2.16 µM (inactive). The GI50 was 13.7 µM (inactive) in [7]; 13.2 µM (inactive) in test [8]; 1.22 µM (inactive) in [9]; 16.3 µM (inactive) in test [10]; 16.6 µM (inactive) in [11]; 5.61 µM (inactive) in test [12]. The GI50 in test [13] is 16.7 µM (inactive); in [14] it was 1.01 µM (active); in test [15], 12.4 µM (inactive); in test [16] it was 13.8 µM (inactive); in [17], 17 µM (inactive); in test [18] it was 1.17 µM (inactive). For the same compound, the values for the GI50 in test [19] and in [20] were 14.6 µM (inactive) and 1.52 µM (inactive), respectively.
Turning to `CSc1nc(SC)c2c(C)c(Br)[nH]c2n1`, the GI50 in test [1], in test [2], in test [3], in [4], in test [5] and in [6] was > 100 µM (inactive) each time. The GI50 in test [7], in test [8], in test [9], in [10], in test [11] and in test [12] was > 100 µM (inactive) in each case. Further, the GI50 in test [13], in test [14], in [15], in [16], in test [17] and in [18] was > 100 µM (inactive) each time. Further, the GI50 in test [19] and in test [20] was > 100 µM (inactive) each time.
On to `C=C1C(=O)O[C@@H]2C[C@@H](C)[C@@H]3C=CC(=O)[C@@]3(C)[C@@H](OC(=O)CC(=O)O[C@H]3[C@@H]4C(=C)C(=O)O[C@@H]4C[C@@H](C)[C@@H]4C=CC(=O)[C@]43C)[C@H]12`, for which the GI50 in test [1] was 0.0893 µM (active); in [2], 0.0386 µM (active); in test [3], 0.431 µM (active); in test [4], 0.0755 µM (active); in test [5] it was 0.0199 µM (active); in test [6], 0.0552 µM (active). The GI50 in test [7] is 0.548 µM (active); in test [8] it was 2.56 µM (inactive); in test [9], < 0.01 µM (active); in test [10], 0.213 µM (active); in test [11], 0.0398 µM (active); in test [12], < 0.01 µM (active). The GI50 in [13] is 0.0356 µM (active); in [14] it was 0.161 µM (active); in test [15], 0.0582 µM (active); in [16], 0.115 µM (active); in test [17], 0.167 µM (active); in test [18] it was 0.0103 µM (active). The GI50 in [19] was 0.0345 µM (active); in [20], 0.0124 µM (active).
`CN1C(=O)C23CC4=CC=CC(O)C4N2C(=O)C1(CO)SS3` (stereo not given): the GI50 is 0.22 µM (active) in test [1]; 0.291 µM (active) in test [2]; 0.171 µM (active) in [3]; 0.188 µM (active) in test [4]; 0.084 µM (active) in [5]; 0.199 µM (active) in [6]. The GI50 was 0.553 µM (active) in test [7]; 0.157 µM (active) in test [8]; 0.0205 µM (active) in test [9]; 0.234 µM (active) in test [10]; 0.507 µM (active) in test [11]; 0.0223 µM (active) in test [12]. Further, the GI50 in test [13] was 0.153 µM (active); in test [14], 0.0948 µM (active); in [15], 0.207 µM (active); in test [16], 0.181 µM (active); in [17], 0.39 µM (active); in test [18], 0.0291 µM (active). For the same compound, the GI50 in test [19] is 0.167 µM (active); in test [20] it was 0.163 µM (active).
As for `CN1CCN(CCCCN2c3ccccc3Sc3ccc(N=[N+]=[N-])cc32)CC1`, the GI50 is 3.99 µM (inactive) in test [1]; 9.77 µM (inactive) in test [2]; 12.9 µM (inactive) in [3]; 2.88 µM (inactive) in test [4]; 7.76 µM (inactive) in [5]; 4.3 µM (inactive) in [6]. Besides, the GI50 in test [7] was 13.4 µM (inactive); in test [8] it was 12.9 µM (inactive); in test [9], 2.6 µM (inactive); in test [10] it was 13.8 µM (inactive); in test [11], 1.84 µM (inactive); in [12], 1.95 µM (inactive). Also, the GI50 in [13] is 4.95 µM (inactive); in test [14], 6.01 µM (inactive); in [15] it was 9.71 µM (inactive); in test [16], 12.2 µM (inactive); in [17], 7.31 µM (inactive); in test [18] it was 2.58 µM (inactive). Moreover, the GI50 in test [19] was 17.8 µM (inactive); in test [20] it was 2.36 µM (inactive).
Take `CC1=NN(c2nc(N)nc(CCl)n2)C(C)(C)C1`: the GI50 is 46.8 µM (inactive) in [1]; 26.7 µM (inactive) in [2]; 42.6 µM (inactive) in test [3]; 31.5 µM (inactive) in [4]; 5.68 µM (inactive) in test [5]; 29.3 µM (inactive) in [6]. Further, the GI50 was > 61.9 µM (inactive) in [7]; 35.1 µM (inactive) in test [8]; 8.15 µM (inactive) in test [9]; 30.6 µM (inactive) in [10]; 34.1 µM (inactive) in [11]; 4.69 µM (inactive) in test [12]. Also, the GI50 in test [13] was 25.4 µM (inactive); in [14], 17.2 µM (inactive); in test [15] it was 20.6 µM (inactive); in test [16], 25.7 µM (inactive); in test [17] it was 21 µM (inactive); in test [18], 15.8 µM (inactive). Moreover, the GI50 in test [19] was 10.8 µM (inactive); in test [20] it was 25.6 µM (inactive).
Turning to `Cc1occc1C(=S)Nc1ccc(Cl)c(C(=O)OC(C)C2CC2)c1` (stereo not given), the GI50 in [1] is 18.3 µM (inactive); in test [2], 22.5 µM (inactive); in [3], 35.2 µM (inactive); in test [4], 18.6 µM (inactive); in test [5], 19.3 µM (inactive); in test [6], 17.4 µM (inactive). The GI50 in test [7] is 17.3 µM (inactive); in test [8] it was 28.1 µM (inactive); in test [9], 50.1 µM (inactive); in [10], 22.3 µM (inactive); in [11] it was 57.9 µM (inactive); in [12], 24.2 µM (inactive). The GI50 in [13] was 23.9 µM (inactive); in [14], 35.7 µM (inactive); in test [15] it was 22.6 µM (inactive); in test [16], 17.2 µM (inactive); in test [17] it was 27.7 µM (inactive); in test [18] it was 18.3 µM (inactive). For the same compound, the GI50 in test [19] was 15.6 µM (inactive); in test [20] it was 24.8 µM (inactive).
With `O=C(Nc1ccc(Cl)c(Cl)c1)N1N=C2c3ccccc3CCC2C1c1ccc(Cl)cc1` (stereo not given), the GI50 in test [1], in test [2], in [3], in [4], in test [5] and in [6] was > 100 µM (inactive) in each case. Moreover, the GI50 in test [7], in [8], in test [9], in test [10], in test [11] and in test [12] was > 100 µM (inactive) each time. Further, the GI50 in [13], in test [14], in [15], in test [16], in test [17] and in [18] was > 100 µM (inactive) in each case. Moreover, the GI50 in [19] and in [20] was > 100 µM (inactive) in each case.
In the case of `Nc1ncnc2c1ncn2CCCNO`, the GI50 in test [1], in test [2], in test [3], in [4], in test [5] and in [6] was > 100 µM (inactive) in each case. Also, the GI50 in test [7], in test [8], in test [9], in test [10], in test [11] and in [12] was > 100 µM (inactive) each time. For the same compound, the GI50 in test [13], in test [14], in test [15], in test [16], in [17] and in test [18] was > 100 µM (inactive) in each case. For the same compound, the GI50 in test [19] and in test [20] was > 100 µM (inactive) throughout.
